Laboratory results from patent publication US20220110325A1, “PESTICIDALLY ACTIVE AZOLE-AMIDE COMPOUNDS” (SYNGENTA CROP PROTECTION AG, priority 2019, published 2022).

Tests used:
Type in all cases: in vivo
[1] = tested on: Plutella xylostella (Diamond Back Moth); assay: Plutella xylostella (diamond back moth), artificial diet, eggs, 24-well; conditions: 192 h, application rate of 200 ppm, eggs on artificial diet, 8 days after infestation, read-out: control in at least one of the two categories (mortality or growth inhibition)
Method: Example B5: Plutella xylostella (Diamond Back Moth)
24-well microtiter plates with artificial diet were treated with aqueous test solutions prepared from 10,000 ppm DMSO stock solutions by pipetting. After drying, Plutella eggs were pipetted through a plastic stencil onto a gel blotting paper and the plate was closed with it. The samples were assessed for mortality and growth inhibition in comparison to untreated samples 8 days after infestation.

[2] = tested on: Diabrotica balteata (corn root worm); assay: Diabrotica balteata (corn root worm), sprayed maize sprouts; conditions: 96 h, application rate of 200 ppm, L2 larvae, 4 days after infestation, read-out: control in at least one of the two categories (mortality or growth inhibition)
Method: Example B2: Diabrotica Balteata (Corn Root Worm)
Maize sprouts placed onto an agar layer in 24-well microtiter plates were treated with aqueous test solutions prepared from 10,000 ppm DMSO stock solutions by spraying. After drying, the plates were infested with L2 larvae (6 to 10 per well). The samples were assessed for mortality and growth inhibition in comparison to untreated samples 4 days after infestation.

[3] = tested on: Spodoptera littoralis (Egyptian Cotton Leaf Worm); assay: Spodoptera littoralis (Egyptian cotton leaf worm), sprayed cotton leaf discs; conditions: foliar, 72 h, application rate of 200 ppm, L1 larvae, 3 days after infestation, read-out: control in at least one of the three categories (mortality, anti-feeding, or growth inhibition)
Method: Example B10: Spodoptera littoralis (Egyptian Cotton Leaf Worm)
Cotton leaf discs were placed onto agar in 24-well microtiter plates and sprayed with aqueous test solutions prepared from 10,000 ppm DMSO stock solutions. After drying the leaf discs were infested with five L1 larvae. The samples were assessed for mortality, anti-feeding effect, and growth inhibition in comparison to untreated samples 3 days after infestation. Control of Spodoptera littoralis by a test sample is given when at least one of the categories mortality, anti-feedant effect, and growth inhibition is higher than the untreated sample.

[4] = tested on: Chilo suppressalis (Striped Rice Stemborer); assay: Chilo suppressalis (striped rice stemborer), artificial diet; conditions: 144 h, application rate of 200 ppm, L2 larvae, 6 days after infestation, read-out: control in at least one of the three categories (mortality, anti-feeding or growth inhibition)
Method: Example 14: Chilo suppressalis (Striped Rice Stemborer)
24-well microtiter plates with artificial diet were treated with aqueous test solutions prepared from 10,000 ppm DMSO stock solutions by pipetting. After drying, the plates were infested with L2 larvae (6-8 per well). The samples were assessed for mortality, anti-feeding effect, and growth inhibition in comparison to untreated samples 6 days after infestation. Control of Chilo suppressalis by a test sample is given when at least one of the categories mortality, anti-feedant effect, and growth inhibition is higher than the untreated sample.

[5] = tested on: Myzus persicae (Green Peach Aphid); assay: Myzus persicae (green peach aphid), intrinsic activity; conditions: 120 h, test rate of 12 ppm, sucrose solution through Parafilm, 5 days after infestation
From the text: Example B8: Myzus persicae (Green Peach Aphid). Intrinsic Activity
Test compounds prepared from 10,000 ppm DMSO stock solutions were applied by pipette into 24-well microtiter plates and mixed with sucrose solution. The plates were closed with a stretched Parafilm. A plastic stencil with 24 holes was placed onto the plate and infested pea seedlings were placed directly on the Parafilm. The infested plate was closed with a gel blotting paper and another plastic stencil and then turned upside down. The samples were assessed for mortality 5 days after infestation.

[6] = tested on: Euschistus heros (Neotropical Brown Stink Bug); assay: Euschistus heros (neotropical brown stink bug), sprayed soybean leaves; conditions: 120 h, application rate of 200 ppm, N2 nymphs, 5 days after infestation, read-out: control in at least one of the two categories (mortality or growth inhibition)
Method: Example B3: Euschistus heros(Neotropical Brown Stink Bug)
Soybean leaves on agar in 24-well microtiter plates were sprayed with aqueous test solutions prepared from 10,000 ppm DMSO stock solutions. After drying the leaves were infested with N2 nymphs. The samples were assessed for mortality and growth inhibition in comparison to untreated samples 5 days after infestation.

[7] = tested on: Plutella xylostella (Diamondback Moth); assay: Plutella xylostella (diamondback moth), 96-well artificial diet, eggs; conditions: 216 h, application rate of 500 ppm, eggs/L1 larvae, 9 days after infestation
Method: Example B13: Plutella xylostella (Diamondback Moth)
96-well microtiter plates containing artificial diet were treated with aqueous test solutions, prepared from 10,000 ppm DMSO stock solutions, by a liquid handling robot. After drying, eggs (˜30 per well) were infested onto a netted lid which was suspended above the diet. The eggs hatch and L1 larvae move down to the diet. The samples were assessed for mortality 9 days after infestation.

[8] = tested on: Tetranychus urticae (Two-Spotted Spider Mite); assay: Tetranychus urticae (two-spotted spider mite), feeding/contact activity; conditions: 192 h
Method: Example B11: Tetranychus urticae (Two-Spotted Spider Mite):Feeding/Contact Activity
Bean leaf discs on agar in 24-well microtiter plates were sprayed with aqueous test solutions prepared from 10,000 ppm DMSO stock solutions. After drying the leaf discs were infested with a mite population of mixed ages. The samples were assessed for mortality on mixed population (mobile stages) 8 days after infestation.

CC(NC(=O)c1cc(C(F)(F)F)cc(C(F)(F)F)c1)c1ncnn1-c1ncc(OCC(F)(F)F)cn1 (stereo not drawn) [Compound P4, N-[1-[2-[5-(2,2,2-trifluoroethoxy)pyrimidin-2-yl]-1,2,4-triazol-3-yl]ethyl]-3,5-bis(trifluoromethyl) benzamide]
≥ 80%: percent control (mortality or growth inhibition) at 200 ppm [1] | percent control (mortality or growth inhibition) at 200 ppm [2] | percent control (mortality, anti-feeding or growth inhibition) at 200 ppm [3] | percent control (mortality, anti-feedant effect or growth inhibition) at 200 ppm [4]

C[C@H](NC(=O)c1cc(C(F)(F)F)cc(C(F)(F)F)c1)c1ncnn1-c1ncc(OC(F)(F)F)cn1 [Compound P7, N-[(1S)-1-[2-[5-(trifluoromethoxy)pyrimidin-2-yl]-1,2,4-triazol-3-yl]ethyl]-3,5-bis(trifluoromethyl) benzamide]
≥ 80%: percent control (mortality or growth inhibition) at 200 ppm [1] | percent control (mortality or growth inhibition) at 200 ppm [2] | percent control (mortality, anti-feeding or growth inhibition) at 200 ppm [3]

CC(NC(=O)c1cc(C(F)(F)F)cc(C(F)(F)F)c1)c1ncnn1-c1ncc(OC(F)F)cn1 (stereo not drawn) [Compound P3, N-[1-[2-[5-(difluoromethoxy)pyrimidin-2-yl]-1,2,4-triazol-3-yl]ethyl]-3,5-bis(trifluoromethyl) benzamide]
≥ 80%: mortality at 12 ppm [5] | percent control (mortality or growth inhibition) at 200 ppm [6] | percent control (mortality or growth inhibition) at 200 ppm [1] | percent control (mortality or growth inhibition) at 200 ppm [2] | percent control (mortality, anti-feeding or growth inhibition) at 200 ppm [3] | percent control (mortality, anti-feedant effect or growth inhibition) at 200 ppm [4]

CC(NC(=O)c1cc(C(F)(F)F)cc(C(F)(F)F)c1)c1ncnn1-c1ccc(OC(F)(F)F)cn1 (stereo not drawn) [Compound P6, N-[1-[2-[5-(trifluoromethoxy)-2-pyridyl]-1,2,4-triazol-3-yl]ethyl]-3,5-bis(trifluoromethyl) benzamide]
≥ 80%: percent control (mortality or growth inhibition) at 200 ppm [6] | mortality at 500 ppm [7] | percent control (mortality or growth inhibition) at 200 ppm [1] | percent control (mortality or growth inhibition) at 200 ppm [2] | mortality at 200 ppm [8] | percent control (mortality, anti-feeding or growth inhibition) at 200 ppm [3] | percent control (mortality, anti-feedant effect or growth inhibition) at 200 ppm [4]

CC(NC(=O)c1cc(C(F)(F)F)cc(C(F)(F)F)c1)c1ncnn1-c1ncc(OCC(F)F)cn1 (stereo not drawn) [Compound P5, N-[1-[2-[5-(2,2-difluoroethoxy)pyrimidin-2-yl]-1,2,4-triazol-3-yl]ethyl]-3,5-bis(trifluoromethyl) benzamide]
≥ 80%: percent control (mortality or growth inhibition) at 200 ppm [6] | percent control (mortality or growth inhibition) at 200 ppm [1] | percent control (mortality or growth inhibition) at 200 ppm [2] | percent control (mortality, anti-feeding or growth inhibition) at 200 ppm [3] | percent control (mortality, anti-feedant effect or growth inhibition) at 200 ppm [4]

CC(NC(=O)c1cc(C(F)(F)F)cc(C(F)(F)F)c1)c1ncnn1-c1ccc(OCC(F)F)cn1 (stereo not drawn) [Compound P9, N-[1-[2-[5-(2,2-difluoroethoxy)-2-pyridyl]-1,2,4-triazol-3-yl]ethyl]-3,5-bis(trifluoromethyl) benzamide]
≥ 80%: percent control (mortality or growth inhibition) at 200 ppm [1] | percent control (mortality or growth inhibition) at 200 ppm [2] | percent control (mortality, anti-feeding or growth inhibition) at 200 ppm [3] | percent control (mortality, anti-feedant effect or growth inhibition) at 200 ppm [4]

CC(NC(=O)c1cc(OCC(F)F)cc(C(F)(F)F)c1)c1ncnn1-c1ncc(OC(F)F)cn1 (stereo not drawn) [Compound P12, 3-(2,2-difluoroethoxy)-N-[1-[2-[5-(difluoromethoxy)pyrimidin-2-yl]-1,2,4-triazol-3-yl]ethyl]-5-(trifluoromethyl) benzamide]
≥ 80%: mortality at 12 ppm [5] | percent control (mortality or growth inhibition) at 200 ppm [1] | percent control (mortality, anti-feeding or growth inhibition) at 200 ppm [3] | percent control (mortality, anti-feedant effect or growth inhibition) at 200 ppm [4]

CC(NC(=O)c1cc(C(F)(F)F)cc(C(F)(F)F)c1)c1ncnn1-c1ccc(O/C=C\C(F)(F)F)cn1 (stereo not drawn) [Compound P10, 3,5-bis(trifluoromethyl)-N-[1-[2-[5-[(Z)-3,3,3-trifluoroprop-1-enoxy]-2-pyridyl]-1,2,4-triazol-3-yl]ethyl]benzamide]
≥ 80%: mortality at 500 ppm [7] | percent control (mortality or growth inhibition) at 200 ppm [1] | percent control (mortality, anti-feedant effect or growth inhibition) at 200 ppm [4]

CC(NC(=O)c1cc(C(F)(F)F)cc(C(F)(F)F)c1)c1ncnn1-c1ccc(OCC(F)(F)F)cn1 (stereo not drawn) [Compound P8, N-[1-[2-[5-(2,2,2-trifluoroethoxy)-2-pyridyl]-1,2,4-triazol-3-yl]ethyl]-3,5-bis(trifluoromethyl)benzamide]
≥ 80%: percent control (mortality or growth inhibition) at 200 ppm [1] | percent control (mortality or growth inhibition) at 200 ppm [2] | percent control (mortality, anti-feeding or growth inhibition) at 200 ppm [3] | percent control (mortality, anti-feedant effect or growth inhibition) at 200 ppm [4]

CC(NC(=O)c1cc(C(F)(F)F)cc(C(F)(F)F)c1)c1ncnn1-c1ccc(OC(F)F)cn1 (stereo not drawn) [Compound P11, N-[1-[2-[5-(difluoromethoxy)-2-pyridyl]-1,2,4-triazol-3-yl]ethyl]-3,5-bis(trifluoromethyl) benzamide]
≥ 80%: mortality at 500 ppm [7] | percent control (mortality or growth inhibition) at 200 ppm [1] | percent control (mortality or growth inhibition) at 200 ppm [2] | percent control (mortality, anti-feeding or growth inhibition) at 200 ppm [3] | percent control (mortality, anti-feedant effect or growth inhibition) at 200 ppm [4]
